From the NIST ThermoML archive (doi:10.1021/acs.jced.9b00703)
Numbers after ± are expanded uncertainties.

What was measured:
[1] = Molar enthalpy of transition or fusion; settings: Crystal; DSC
[2] = Crystal; DSC

- Molar enthalpy of transition or fusion [1]: 10.7 ± 0.382 kcal/mol
- Triple point temperature [2]: 475.25 ± 0.87 K
SMILES: OC[C@H]1O[C@@H](Oc2ccc(O)cc2)[C@H](O)[C@@H](O)[C@@H]1O [β-arbutin]
